Reference: paper PMC6407917, “Identification of GSK3186899/DDD853651 as a Preclinical Development Candidate for the Treatment of Visceral Leishmaniasis” (Journal of Medicinal Chemistry, 2018)

What was measured:
Test in all cases: biochemical
Parameters in all cases: species or system HEK293/K-562/placenta mixed human extract; Kinobeads chemoproteomic competition binding, quantified by TMT LC-MS/MS, dose response up to 20 uM
AXL = AXL (Homo sapiens, UniProt P30530)
BRAF = BRAF (Homo sapiens, UniProt P15056)
CAMKK1 = CAMKK1 (Homo sapiens, UniProt Q8N5S9)
CLK1 = CLK1 (Homo sapiens, UniProt P49759)
CSNK1D = CSNK1D (Homo sapiens, UniProt P48730)
FES = FES (Homo sapiens, UniProt P07332)
FRK = FRK (Homo sapiens, UniProt P42685)
KIT = KIT (Homo sapiens, UniProt P10721)
LIMK1 = LIMK1 (Homo sapiens, UniProt P53667)
MAP2K1 = MAP2K1 (Homo sapiens, UniProt Q02750)
MAP4K5 = MAP4K5 (Homo sapiens, UniProt Q9Y4K4)
MARK1 = MARK1 (Homo sapiens, UniProt Q9P0L2)
MELK = MELK (Homo sapiens, UniProt Q14680)
MKNK2 = MKNK2 (Homo sapiens, UniProt Q9HBH9)
PKN2 = PKN2 (Homo sapiens, UniProt Q16513)
PKN3 = PKN3 (Homo sapiens, UniProt Q6P5Z2)
PRKAA2 = PRKAA2 (Homo sapiens, UniProt P54646)
PRKACA = PRKACA (Homo sapiens, UniProt P17612)
RPS6KA3 = RPS6KA3 (Homo sapiens, UniProt P51812)
STK10 = STK10 (Homo sapiens, UniProt O94804)
TAOK1 = TAOK1 (Homo sapiens, UniProt Q7L7X3)

Measured: IC50

Sequence of LIMK1 (P53667 whole entry): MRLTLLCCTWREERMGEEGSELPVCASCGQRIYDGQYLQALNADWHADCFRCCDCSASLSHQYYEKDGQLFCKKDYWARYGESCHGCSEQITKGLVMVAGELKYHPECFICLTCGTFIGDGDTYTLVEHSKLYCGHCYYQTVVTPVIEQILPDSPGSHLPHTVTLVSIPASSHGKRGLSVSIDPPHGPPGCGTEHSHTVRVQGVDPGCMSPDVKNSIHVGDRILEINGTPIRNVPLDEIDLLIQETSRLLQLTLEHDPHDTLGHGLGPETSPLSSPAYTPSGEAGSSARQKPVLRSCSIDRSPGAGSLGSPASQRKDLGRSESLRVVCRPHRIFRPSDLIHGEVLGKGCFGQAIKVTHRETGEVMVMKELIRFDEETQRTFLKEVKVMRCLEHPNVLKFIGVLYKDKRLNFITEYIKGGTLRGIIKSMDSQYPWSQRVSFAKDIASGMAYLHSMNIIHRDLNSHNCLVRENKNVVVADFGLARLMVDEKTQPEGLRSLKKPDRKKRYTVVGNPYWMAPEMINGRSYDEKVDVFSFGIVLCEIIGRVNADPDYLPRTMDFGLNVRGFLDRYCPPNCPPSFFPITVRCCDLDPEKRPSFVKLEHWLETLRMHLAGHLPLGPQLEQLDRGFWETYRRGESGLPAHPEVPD
Sequence of FRK (P42685 whole entry): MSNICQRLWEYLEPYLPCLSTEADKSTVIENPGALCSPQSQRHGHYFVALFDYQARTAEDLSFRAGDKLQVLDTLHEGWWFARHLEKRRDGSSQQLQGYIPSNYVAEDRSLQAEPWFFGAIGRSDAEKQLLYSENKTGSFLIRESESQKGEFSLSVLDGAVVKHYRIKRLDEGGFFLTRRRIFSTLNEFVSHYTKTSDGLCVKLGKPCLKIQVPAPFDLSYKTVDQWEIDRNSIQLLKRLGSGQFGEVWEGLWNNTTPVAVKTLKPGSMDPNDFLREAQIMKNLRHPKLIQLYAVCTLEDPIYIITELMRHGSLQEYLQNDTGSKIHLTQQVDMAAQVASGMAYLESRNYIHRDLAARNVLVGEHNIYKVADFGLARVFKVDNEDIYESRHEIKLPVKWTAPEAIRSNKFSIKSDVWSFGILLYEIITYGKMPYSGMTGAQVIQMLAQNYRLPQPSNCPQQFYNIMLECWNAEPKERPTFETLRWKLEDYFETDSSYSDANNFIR
Sequence of CAMKK1 (Q8N5S9 whole entry): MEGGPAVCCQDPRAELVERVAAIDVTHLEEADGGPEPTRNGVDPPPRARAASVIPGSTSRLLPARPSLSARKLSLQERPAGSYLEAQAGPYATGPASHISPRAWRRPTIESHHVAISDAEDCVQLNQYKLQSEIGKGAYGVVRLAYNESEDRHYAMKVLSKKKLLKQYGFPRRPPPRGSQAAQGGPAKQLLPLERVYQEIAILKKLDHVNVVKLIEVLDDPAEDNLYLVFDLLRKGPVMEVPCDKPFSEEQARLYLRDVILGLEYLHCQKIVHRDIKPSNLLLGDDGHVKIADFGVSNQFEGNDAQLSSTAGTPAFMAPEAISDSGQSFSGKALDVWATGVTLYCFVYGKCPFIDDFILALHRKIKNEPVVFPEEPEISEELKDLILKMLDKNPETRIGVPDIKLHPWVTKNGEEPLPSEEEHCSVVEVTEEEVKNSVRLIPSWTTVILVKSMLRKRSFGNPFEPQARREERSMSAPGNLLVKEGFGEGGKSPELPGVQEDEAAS
Sequence of TAOK1 (Q7L7X3 whole entry): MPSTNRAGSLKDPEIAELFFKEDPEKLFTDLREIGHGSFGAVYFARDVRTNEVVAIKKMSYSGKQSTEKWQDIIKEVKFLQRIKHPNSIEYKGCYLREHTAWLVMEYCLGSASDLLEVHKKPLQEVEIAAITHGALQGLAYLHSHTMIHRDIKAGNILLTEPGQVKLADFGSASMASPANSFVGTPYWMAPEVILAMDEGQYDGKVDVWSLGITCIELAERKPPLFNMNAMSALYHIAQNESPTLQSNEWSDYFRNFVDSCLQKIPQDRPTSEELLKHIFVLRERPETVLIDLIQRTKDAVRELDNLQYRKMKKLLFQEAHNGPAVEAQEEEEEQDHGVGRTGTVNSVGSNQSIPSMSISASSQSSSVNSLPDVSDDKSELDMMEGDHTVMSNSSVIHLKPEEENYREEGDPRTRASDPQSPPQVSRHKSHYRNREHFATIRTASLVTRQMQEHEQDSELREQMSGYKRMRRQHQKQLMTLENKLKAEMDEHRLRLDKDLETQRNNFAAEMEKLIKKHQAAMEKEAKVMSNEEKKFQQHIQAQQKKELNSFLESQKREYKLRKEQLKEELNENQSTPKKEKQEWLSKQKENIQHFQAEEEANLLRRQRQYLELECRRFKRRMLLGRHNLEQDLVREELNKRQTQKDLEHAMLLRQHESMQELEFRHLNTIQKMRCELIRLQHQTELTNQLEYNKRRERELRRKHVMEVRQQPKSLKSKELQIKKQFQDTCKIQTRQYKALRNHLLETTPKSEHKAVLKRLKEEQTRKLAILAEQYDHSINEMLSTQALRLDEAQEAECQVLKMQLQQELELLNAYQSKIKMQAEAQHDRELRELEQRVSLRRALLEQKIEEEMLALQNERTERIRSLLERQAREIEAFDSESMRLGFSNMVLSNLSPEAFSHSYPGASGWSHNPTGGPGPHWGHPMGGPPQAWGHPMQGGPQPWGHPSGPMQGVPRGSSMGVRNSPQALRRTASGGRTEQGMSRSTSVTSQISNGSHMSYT
Sequence of MAP4K5 (Q9Y4K4 whole entry): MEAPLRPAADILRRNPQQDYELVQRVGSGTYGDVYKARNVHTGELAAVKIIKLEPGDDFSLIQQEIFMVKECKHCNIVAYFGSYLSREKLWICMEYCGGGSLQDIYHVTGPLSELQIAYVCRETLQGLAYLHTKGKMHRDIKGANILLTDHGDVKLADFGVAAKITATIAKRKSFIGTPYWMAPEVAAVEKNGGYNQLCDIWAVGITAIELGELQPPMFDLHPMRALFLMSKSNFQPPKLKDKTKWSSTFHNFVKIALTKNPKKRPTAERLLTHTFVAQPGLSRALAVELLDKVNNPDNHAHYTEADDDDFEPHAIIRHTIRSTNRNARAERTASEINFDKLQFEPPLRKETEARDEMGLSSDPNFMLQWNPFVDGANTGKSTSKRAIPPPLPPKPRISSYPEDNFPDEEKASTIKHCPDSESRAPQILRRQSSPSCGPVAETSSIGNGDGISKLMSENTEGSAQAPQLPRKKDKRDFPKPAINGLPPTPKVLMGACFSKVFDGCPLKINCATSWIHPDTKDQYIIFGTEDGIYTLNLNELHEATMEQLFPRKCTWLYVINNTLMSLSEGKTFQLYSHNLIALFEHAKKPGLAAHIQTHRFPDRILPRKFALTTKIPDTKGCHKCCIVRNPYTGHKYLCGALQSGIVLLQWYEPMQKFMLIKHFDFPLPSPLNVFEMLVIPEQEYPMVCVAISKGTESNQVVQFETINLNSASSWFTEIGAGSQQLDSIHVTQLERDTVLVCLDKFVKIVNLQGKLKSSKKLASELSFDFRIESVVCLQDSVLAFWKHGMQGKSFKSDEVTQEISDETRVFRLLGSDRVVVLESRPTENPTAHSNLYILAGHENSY
Sequence of PKN2 (Q16513 whole entry): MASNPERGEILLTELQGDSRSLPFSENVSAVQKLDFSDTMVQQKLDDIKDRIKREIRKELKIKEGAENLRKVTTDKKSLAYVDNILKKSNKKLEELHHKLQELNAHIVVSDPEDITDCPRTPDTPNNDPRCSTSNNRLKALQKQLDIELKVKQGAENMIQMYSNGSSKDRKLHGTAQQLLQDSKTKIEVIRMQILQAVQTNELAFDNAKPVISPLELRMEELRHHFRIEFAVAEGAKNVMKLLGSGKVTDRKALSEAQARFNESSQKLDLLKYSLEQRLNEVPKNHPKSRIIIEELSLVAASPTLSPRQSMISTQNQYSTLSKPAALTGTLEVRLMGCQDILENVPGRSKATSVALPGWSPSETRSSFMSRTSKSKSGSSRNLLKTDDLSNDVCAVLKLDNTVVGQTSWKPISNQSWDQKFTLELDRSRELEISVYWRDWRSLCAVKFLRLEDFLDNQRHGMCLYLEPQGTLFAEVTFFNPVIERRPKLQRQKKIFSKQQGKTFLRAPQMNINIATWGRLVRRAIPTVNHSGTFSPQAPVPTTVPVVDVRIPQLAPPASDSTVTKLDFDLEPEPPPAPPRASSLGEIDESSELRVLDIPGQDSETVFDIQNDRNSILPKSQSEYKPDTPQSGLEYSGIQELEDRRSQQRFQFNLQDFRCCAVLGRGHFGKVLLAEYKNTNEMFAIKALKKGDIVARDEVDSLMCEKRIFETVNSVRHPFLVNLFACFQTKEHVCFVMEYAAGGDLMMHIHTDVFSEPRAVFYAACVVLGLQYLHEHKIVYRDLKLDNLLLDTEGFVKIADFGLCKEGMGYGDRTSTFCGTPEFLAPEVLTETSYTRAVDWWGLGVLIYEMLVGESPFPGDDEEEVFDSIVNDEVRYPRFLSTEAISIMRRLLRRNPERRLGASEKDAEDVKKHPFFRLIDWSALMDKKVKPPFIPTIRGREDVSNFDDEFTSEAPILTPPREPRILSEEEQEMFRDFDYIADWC
Sequence of CSNK1D (P48730 whole entry): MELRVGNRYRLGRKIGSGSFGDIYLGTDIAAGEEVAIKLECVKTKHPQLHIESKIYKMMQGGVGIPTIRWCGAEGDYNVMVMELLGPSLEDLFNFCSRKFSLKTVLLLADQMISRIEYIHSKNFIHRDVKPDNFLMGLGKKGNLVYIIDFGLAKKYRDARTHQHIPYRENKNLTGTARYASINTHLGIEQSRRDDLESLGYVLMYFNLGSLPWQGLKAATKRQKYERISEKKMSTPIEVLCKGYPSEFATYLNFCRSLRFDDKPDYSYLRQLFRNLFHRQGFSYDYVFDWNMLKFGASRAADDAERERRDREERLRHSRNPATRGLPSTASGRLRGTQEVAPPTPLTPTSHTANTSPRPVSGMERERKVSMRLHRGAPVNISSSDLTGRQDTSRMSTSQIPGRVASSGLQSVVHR

COc1nc(N[C@H]2CC[C@H](NS(=O)(=O)CC(C)C)CC2)nc2[nH]nc(N3CCOC[C@H]3C)c12 [compound 39, N-(trans-4-((4-Methoxy-3-((R)-3-methylmorpholino)-1H-pyrazolo[3,4-d]pyrimidin-6-yl)amino)cyclohexyl)-2-methylpropane-1-sulfonamide]
≥ 20 µM: all assays above
